{"source": "patent US9926284B2", "about": "“Substituted N-(1,2,4-triazol-3-yl)Arylcarboxamide compounds and their use as herbicides” (BASF SE, priority 2013, dated 2018)", "type_in_all_cases": "in vivo", "key": {"Setaria faberi": {"tested_on": "Setaria faberi", "test": "greenhouse pre-emergence treatment, herbicidal activity", "conditions": "pre-emergence (values labeled *), 1000 g/ha, scale 0 to 100", "text": "(§1) The seeds of the test plants were sown separately for each species. For the pre-emergence treatment, the active ingredients, which had been suspended or emulsified in water, were applied directly after sowing by means of finely distributing nozzles. The containers were irrigated gently to promote germination and growth and subsequently covered with transparent plastic hoods until the plants had rooted. This cover caused uniform germination of the test plants, unless this has been impaired by the active ingredients. Depending on the species, the plants were kept at 10-25° C. or 20-35° C. The test period extended over 2 to 4 weeks. During this time, the plants were tended, and their response to the individual treatments was evaluated. Evaluation was carried out using a scale from 0 to 100. 100 means no emergence of the plants, or complete destruction of at least the aerial moieties, and 0 means no damage, or normal course of growth. A good herbicidal activity is given at values of at least 70 and a very good herbicidal activity is given at values of at least 85. The plants used in the greenhouse experiments belonged to the following species: [table]"}, "Agrostis spica-venti": {"tested_on": "Agrostis spica-venti", "test": "greenhouse pre-emergence treatment, herbicidal activity", "conditions": "pre-emergence (values labeled *), 1000 g/ha, scale 0 to 100", "text": "as §1"}, "Echinochloa crus-galli [1]": {"tested_on": "Echinochloa crus-galli", "test": "greenhouse pre-emergence treatment, herbicidal activity", "conditions": "pre-emergence (values labeled *), 1000 g/ha, scale 0 to 100", "text": "as §1"}, "Amaranthus retroflexus [2]": {"tested_on": "Amaranthus retroflexus", "test": "greenhouse pre-emergence treatment, herbicidal activity", "conditions": "pre-emergence (values labeled *), 1000 g/ha, scale 0 to 100", "text": "as §1"}, "Avena fatua": {"tested_on": "Avena fatua", "test": "greenhouse post-emergence treatment, herbicidal activity", "conditions": "1000 g/ha, scale 0 to 100", "text": "(§2) The seeds of the test plants were sown separately for each species. For the post-emergence treatment, the test plants were first grown to a height of 3 to 15 cm, depending on the plant habit, and only then treated with the active ingredients which had been suspended or emulsified in water. For this purpose, the test plants were either sown directly and grown in the same containers, or they were first grown separately as seedlings and transplanted into the test containers a few days prior to treatment. Depending on the species, the plants were kept at 10-25° C. or 20-35° C. The test period extended over 2 to 4 weeks. During this time, the plants were tended, and their response to the individual treatments was evaluated. Evaluation was carried out using a scale from 0 to 100. 100 means no emergence of the plants, or complete destruction of at least the aerial moieties, and 0 means no damage, or normal course of growth. A good herbicidal activity is given at values of at least 70 and a very good herbicidal activity is given at values of at least 85. The plants used in the greenhouse experiments belonged to the following species: [table]"}, "Setaria viridis": {"tested_on": "Setaria viridis", "test": "greenhouse post-emergence treatment, herbicidal activity", "conditions": "1000 g/ha, scale 0 to 100", "text": "as §2"}, "Abutilon theophrasti [3]": {"tested_on": "Abutilon theophrasti", "test": "greenhouse post-emergence treatment, herbicidal activity", "conditions": "1000 g/ha, scale 0 to 100", "text": "as §2"}, "Echinochloa crus-galli [4]": {"tested_on": "Echinochloa crus-galli", "test": "greenhouse post-emergence treatment, herbicidal activity", "conditions": "1000 g/ha, scale 0 to 100", "text": "as §2"}, "Amaranthus retroflexus [5]": {"tested_on": "Amaranthus retroflexus", "test": "greenhouse post-emergence treatment, herbicidal activity", "conditions": "1000 g/ha, scale 0 to 100", "text": "as §2"}, "Abutilon theophrasti [6]": {"tested_on": "Abutilon theophrasti", "test": "greenhouse pre-emergence treatment, herbicidal activity", "conditions": "pre-emergence (values labeled *), 1000 g/ha, scale 0 to 100", "text": "as §1"}, "Alopecurus agrestis": {"tested_on": "Alopecurus agrestis", "test": "greenhouse post-emergence treatment, herbicidal activity", "conditions": "1000 g/ha, scale 0 to 100", "text": "as §2"}}, "note": "Marks after values point to notes of the source that are not given here."}
{"smiles": "CCn1cnnc1NC(=O)c1c(F)cc(Cl)c(S(C)(=O)=O)c1Cl", "note": "[cpd. 2, 2,4-dichloro-N-(4-ethyl-1,2,4-triazol-3-yl)-6-fluoro-3-methyl-sulfonyl-benzamide]", "values": [{"measurement": "damage [%] in weed species VII (SETFA)", "setting": "Setaria faberi", "result": "85* %"}, {"measurement": "damage [%] in weed species IV (APESV)", "setting": "Agrostis spica-venti", "result": "80* %"}, {"measurement": "damage [%] in weed species VI (ECHCG)", "setting": "Echinochloa crus-galli [1]", "result": 98, "unit": "%"}, {"measurement": "damage [%] in weed species III (AMARE)", "setting": "Amaranthus retroflexus [2]", "result": 95, "unit": "%"}, {"measurement": "damage [%] in weed species V (AVEFA)", "setting": "Avena fatua", "result": 75, "unit": "%"}, {"measurement": "damage [%] in weed species VIII (SETVI)", "setting": "Setaria viridis", "result": 100, "unit": "%"}, {"measurement": "damage [%] in weed species I (ABUTH)", "setting": "Abutilon theophrasti [3]", "result": 100, "unit": "%"}, {"measurement": "damage [%] in weed species VI (ECHCG)", "setting": "Echinochloa crus-galli [4]", "result": 90, "unit": "%"}, {"measurement": "damage [%] in weed species III (AMARE)", "setting": "Amaranthus retroflexus [5]", "result": 75, "unit": "%"}]}
{"smiles": "CCn1cnnc1NC(=O)c1c(F)cc(Cl)c(SC)c1Cl", "note": "[cpd. 3, 2,4-dichloro-N-(4-ethyl-1,2,4-triazol-3-yl)-6-fluoro-3 methyl-sulfanyl-benzamide]", "values": [{"measurement": "damage [%] in weed species VII (SETFA)", "setting": "Setaria faberi", "result": "70* %"}, {"measurement": "damage [%] in weed species I (ABUTH)", "setting": "Abutilon theophrasti [6]", "result": 90, "unit": "%"}, {"measurement": "damage [%] in weed species VI (ECHCG)", "setting": "Echinochloa crus-galli [1]", "result": 75, "unit": "%"}, {"measurement": "damage [%] in weed species III (AMARE)", "setting": "Amaranthus retroflexus [2]", "result": 90, "unit": "%"}, {"measurement": "damage [%] in weed species V (AVEFA)", "setting": "Avena fatua", "result": 80, "unit": "%"}, {"measurement": "damage [%] in weed species VIII (SETVI)", "setting": "Setaria viridis", "result": 100, "unit": "%"}, {"measurement": "damage [%] in weed species I (ABUTH)", "setting": "Abutilon theophrasti [3]", "result": 100, "unit": "%"}, {"measurement": "damage [%] in weed species VI (ECHCG)", "setting": "Echinochloa crus-galli [4]", "result": 98, "unit": "%"}, {"measurement": "damage [%] in weed species III (AMARE)", "setting": "Amaranthus retroflexus [5]", "result": 100, "unit": "%"}]}
{"smiles": "CSc1c(Cl)cc(F)c(C(=O)Nc2nncn2C)c1Cl", "note": "[cpd. 4, 2,4-dichloro-6-fluoro-3-methylsulfanyl-N-(4-methyl-1,2,4-triazol-3-yl)benzamide]", "values": [{"measurement": "damage [%] in weed species VII (SETFA)", "setting": "Setaria faberi", "result": "70* %"}, {"measurement": "damage [%] in weed species I (ABUTH)", "setting": "Abutilon theophrasti [6]", "result": 70, "unit": "%"}, {"measurement": "damage [%] in weed species IV (APESV)", "setting": "Agrostis spica-venti", "result": "70* %"}, {"measurement": "damage [%] in weed species III (AMARE)", "setting": "Amaranthus retroflexus [2]", "result": "100, 100* %"}, {"measurement": "damage [%] in weed species V (AVEFA)", "setting": "Avena fatua", "result": 90, "unit": "%"}, {"measurement": "damage [%] in weed species VIII (SETVI)", "setting": "Setaria viridis", "result": 100, "unit": "%"}, {"measurement": "damage [%] in weed species I (ABUTH)", "setting": "Abutilon theophrasti [3]", "result": 100, "unit": "%"}, {"measurement": "damage [%] in weed species II (ALOMY)", "setting": "Alopecurus agrestis", "result": 90, "unit": "%"}, {"measurement": "damage [%] in weed species VI (ECHCG)", "setting": "Echinochloa crus-galli [4]", "result": 95, "unit": "%"}, {"measurement": "damage [%] in weed species III (AMARE)", "setting": "Amaranthus retroflexus [5]", "result": "100, 100* %"}]}
{"smiles": "Cn1cnnc1NC(=O)c1c(F)cc(Cl)c(S(C)(=O)=O)c1Cl", "note": "[cpd. 5, 2,4-dichloro-6-fluoro-3-methylsulfonyl-N-(4-methyl-1,2,4-triazol-3-yl)benzamide]", "values": [{"measurement": "damage [%] in weed species VII (SETFA)", "setting": "Setaria faberi", "result": "85* %"}, {"measurement": "damage [%] in weed species I (ABUTH)", "setting": "Abutilon theophrasti [6]", "result": 80, "unit": "%"}, {"measurement": "damage [%] in weed species IV (APESV)", "setting": "Agrostis spica-venti", "result": "70* %"}, {"measurement": "damage [%] in weed species VI (ECHCG)", "setting": "Echinochloa crus-galli [1]", "result": 80, "unit": "%"}, {"measurement": "damage [%] in weed species III (AMARE)", "setting": "Amaranthus retroflexus [2]", "result": 85, "unit": "%"}, {"measurement": "damage [%] in weed species VIII (SETVI)", "setting": "Setaria viridis", "result": 95, "unit": "%"}, {"measurement": "damage [%] in weed species I (ABUTH)", "setting": "Abutilon theophrasti [3]", "result": 98, "unit": "%"}, {"measurement": "damage [%] in weed species II (ALOMY)", "setting": "Alopecurus agrestis", "result": 85, "unit": "%"}, {"measurement": "damage [%] in weed species VI (ECHCG)", "setting": "Echinochloa crus-galli [4]", "result": 98, "unit": "%"}, {"measurement": "damage [%] in weed species III (AMARE)", "setting": "Amaranthus retroflexus [5]", "result": 90, "unit": "%"}]}
